Laboratory results from patent US20220133722A1, “PHARMACEUTICAL COMPOSITIONS” (QUE ONCOLOGY PTY LTD, priority 2019, published 2022).
“And” between values parts separate entries of the source, which are not always exact repeats. Identical values can stand only once.

Assay: Part 2 PK study: 200 mg QD versus 100 mg BID for 10 days under fed conditions
Assay type: in vivo, human
Settings: for AUC0-last / AUC0-tau / Cavg / Cmax / Fluct / Tlast / Tmax / t½ / % AUCexp / AUCinf / Accum Index / CLss/F / Cmin: fed
Procedure: Part 2 involved analysing the PK parameters obtained following either single (QD) or twice daily (BD) dosing of a compound of formula (Ia) under fed conditions.
Subjects were randomized 1:1 to receive a daily dose of 200 mg administered once daily in the morning (200 mg capsule) or twice daily (100 mg capsules BID) for a total of 10 days. PK blood samples were taken on Day 1 pre-dose and at 0.25, 0.5, 1.0, 1.5, 2, 3, 4, 8, 10, 12 and 16 hours post-dose. On Days 2 to 10, PK blood samples were taken once pre-dose, and on Days 11 to 14, at 24, 36, 48, 60, 72 and 96 hours post-dose.
Subjects selected for participation checked into the clinical unit and were randomized to the dosing regimen receiving their first dose of study drug on the morning of Day 1 followed by PK and safety assessments through the morning of Day 2 (24 hours post-dose). Subjects on a BID regimen received their second dose of study drug approximately 12 hours after the first dose. Subjects remained confined in the clinic for dosing BID or QD through the last dose of study drug on the morning of Day 10. PK samples were collected through 96 hrs post-dose. Subjects were discharged from the clinic following collection of the 72 hr PK sample, returning to the clinic on the morning of Day 14 for the 96 hr sample collection.
For both Parts 1 and 2, samples were processed and analysed as follows. The method extracted Q-122 and the Internal Standard (IS, Q-122 ^13C4) from human plasma using protein precipitation extraction.
The analytes were separated by HPLC on a Phenomenex Synergi Polar-RP column, and the eluates monitored by an API4000 MS/MS detector in positive MRM mode. The extract was then assayed against a calibration curve. The data were acquired and processed by the data acquisition system Analyst® (Sciex) linked directly to the API4000 MS/MS detector and then processed in Watson LIMS™ (Thermo Scientific), where applicable. The method range is from 10.0 to 2500 ng/mL using 50 μL of matrix and has a run time of approximately 3.2 minutes per sample.
Plasma PK parameters for each dosing regimen and dose level were calculated from the concentrations of Q-122 and its major metabolites measured in pre-dose and post-dose plasma samples. For each dose level, descriptive statistics (sample size, arithmetic means, geometric means, standard deviation, % coefficient of variation, minimum, median, and maximum) are presented.
The pharmacokinetic results were processed according to standard non-compartmental analytical procedures. The software used was Phoenix™ WinNonlin® v 6.4 (Pharsight Corporation, USA) and Microsoft® Excel® 2010 (Microsoft Corporation). The following PK parameters were estimated from plasma data.

[1] = 100 mg BID, Day 1, individual subjects
[2] = 100 mg BID, Day 10, individual subjects
[3] = 200 mg QD, Day 1, individual subjects

Cmin (range over subjects) (100 mg BID dosing with food): 117 to 195 ng/mL
change of Cavg between days 1 and 10 (100 mg BID dosing with food): doubled
increase of mean Cmax between days 1 and 10 (100 mg BID dosing with food): less than 2 fold
trough concentrations with BID dosing relative to QD dosing (100 mg BID versus 200 mg QD): approximately double
Tlast [1]: 24.00 h
Tmax [1]: 1.00 h and 1.50 h
AUC0-tau (100 mg BID, Day 1, max): 4378 ng·h/mL
Cavg (100 mg BID, Day 1, max): 364.87 ng/mL
Cmax (100 mg BID, Day 1, max): 939.00 ng/mL
Fluct (100 mg BID, Day 1, max): 270.44%
Tlast (100 mg BID, Day 1, max): 24.00 h
t½ (100 mg BID, Day 1, max): 9.38 h
Cavg (100 mg BID, Day 1, mean): 299.088 ng/mL
Fluct (100 mg BID, Day 1, mean): 241.041%
Tlast (100 mg BID, Day 1, mean): 24.000 h
Cavg (100 mg BID, Day 1, median): 307.51 ng/mL
Fluct (100 mg BID, Day 1, median): 252.72%
Tlast (100 mg BID, Day 1, median): 24.00 h
AUC0-last (100 mg BID, Day 1, min): 5186 ng·h/mL
AUC0-tau (100 mg BID, Day 1, min): 2727 ng·h/mL
Cavg (100 mg BID, Day 1, min): 227.25 ng/mL
Cmax (100 mg BID, Day 1, min): 405.00 ng/mL
Fluct (100 mg BID, Day 1, min): 173.90%
Tlast (100 mg BID, Day 1, min): 24.00 h
Tmax (100 mg BID, Day 1, min): 1.00 h
t½ (100 mg BID, Day 1, min): 3.19 h
Tmax [2]: 1.50 h and 1.00 h
% AUCexp (100 mg BID, Day 10, max): 8.16%
Accum Index (100 mg BID, Day 10, max): 4.17
CLss/F (100 mg BID, Day 10, max): 26.80 L/h
Cavg (100 mg BID, Day 10, max): 583.47 ng/mL
Cmin (100 mg BID, Day 10, max): 195.00 ng/mL
Fluct (100 mg BID, Day 10, max): 240.58%
Tlast (100 mg BID, Day 10, max): 72.00 h
t½ (100 mg BID, Day 10, max): 30.30 h
% AUCexp (100 mg BID, Day 10, mean): 4.679%
CLss/F (100 mg BID, Day 10, mean): 19.340 L/h
Cavg (100 mg BID, Day 10, mean): 453.609 ng/mL
Cmin (100 mg BID, Day 10, mean): 145.833 ng/mL
Fluct (100 mg BID, Day 10, mean): 193.726%
Tlast (100 mg BID, Day 10, mean): 40.000 h
% AUCexp (100 mg BID, Day 10, median): 4.42%
Accum Index (100 mg BID, Day 10, median): 1.58
CLss/F (100 mg BID, Day 10, median): 17.38 L/h
Cavg (100 mg BID, Day 10, median): 480.30 ng/mL
Cmin (100 mg BID, Day 10, median): 138.50 ng/mL
Fluct (100 mg BID, Day 10, median): 200.31%
Tlast (100 mg BID, Day 10, median): 36.00 h
% AUCexp (100 mg BID, Day 10, min): 1.52%
AUC0-last (100 mg BID, Day 10, min): 5510 ng·h/mL
AUC0-tau (100 mg BID, Day 10, min): 3731 ng·h/mL
AUCinf (100 mg BID, Day 10, min): 6000 ng·h/mL
Accum Index (100 mg BID, Day 10, min): 1.28
CLss/F (100 mg BID, Day 10, min): 14.28 L/h
Cavg (100 mg BID, Day 10, min): 310.92 ng/mL
Cmax (100 mg BID, Day 10, min): 677.00 ng/mL
Cmin (100 mg BID, Day 10, min): 117.00 ng/mL
Fluct (100 mg BID, Day 10, min): 152.13%
Tlast (100 mg BID, Day 10, min): 24 h
Tmax (100 mg BID, Day 10, min): 1.00 h
t½ (100 mg BID, Day 10, min): 5.46 h
Cmin (range over subjects) (200 mg QD dosing with food): 52 to 94 ng/mL
change of Cmax and Cavg between Days 1 and 10 (200 mg QD dosing with food): neither Cmax nor Cavg changed
Tlast [3]: 24.00 h
AUC0-last (200 mg QD, Day 1, max): 12571 ng·h/mL
AUC0-tau (200 mg QD, Day 1, max): 12571 ng·h/mL
Cavg (200 mg QD, Day 1, max): 523.80 ng/mL
Cmax (200 mg QD, Day 1, max): 2010.00 ng/mL
Fluct (200 mg QD, Day 1, max): 501.79%
Tlast (200 mg QD, Day 1, max): 24.00 h
t½ (200 mg QD, Day 1, max): 17.12 h
Cavg (200 mg QD, Day 1, mean): 335.791 ng/mL
Fluct (200 mg QD, Day 1, mean): 372.185%
Tlast (200 mg QD, Day 1, mean): 24.000 h
Cavg (200 mg QD, Day 1, median): 324.48 ng/mL
Fluct (200 mg QD, Day 1, median): 377.75%
Tlast (200 mg QD, Day 1, median): 24.00 h
AUC0-last (200 mg QD, Day 1, min): 1632 ng·h/mL
AUC0-tau (200 mg QD, Day 1, min): 1632 ng·h/mL
Cavg (200 mg QD, Day 1, min): 67.99 ng/mL
Cmax (200 mg QD, Day 1, min): 101.00 ng/mL
Fluct (200 mg QD, Day 1, min): 148.55%
Tlast (200 mg QD, Day 1, min): 24.00 h
t½ (200 mg QD, Day 1, min): 4.61 h
Compound: c1cnc(NCc2ccc(CNc3ncccn3)cc2)nc1 [Q-122]
AUC0-last [1]: 6822 ng·h/mL and 7028 ng·h/mL and 6463 ng·h/mL and 6090 ng·h/mL and 5186 ng·h/mL
AUC0-tau [1]: 3781 ng·h/mL and 2727 ng·h/mL and 4254 ng·h/mL and 3600 ng·h/mL and 4378 ng·h/mL
Cavg [1]: 354.49 ng/mL and 299.97 ng/mL and 364.87 ng/mL and 232.90 ng/mL and 315.05 ng/mL and 227.25 ng/mL
Cmax [1]: 939.00 ng/mL and 773.00 ng/mL and 845.00 ng/mL and 405.00 ng/mL and 852.00 ng/mL and 563.00 ng/mL
Fluct [1]: 264.89% and 257.70% and 231.59% and 173.90% and 270.44% and 247.74%
t½ [1]: 9.38 h and 6.21 h and 3.97 h and 3.19 h and 5.52 h and 4.66 h
% AUCexp [2]: 2.24% and 1.52% and 8.16% and 4.45% and 7.33% and 4.38%
AUC0-last [2]: 7715 ng·h/mL and 5510 ng·h/mL and 6477 ng·h/mL and 5615 ng·h/mL and 7597 ng·h/mL
AUC0-tau [2]: 5982 ng·h/mL and 3731 ng·h/mL and 5545 ng·h/mL and 4118 ng·h/mL and 6283 ng·h/mL
AUCinf [2]: 7834 ng·h/mL and 6000 ng·h/mL and 6779 ng·h/mL and 6059 ng·h/mL and 7945 ng·h/mL
Accum Index [2]: 2.06 and 1.33 and 4.17 and 1.36 and 1.79 and 1.28
CLss/F [2]: 14.28 L/h and 16.72 L/h and 26.80 L/h and 18.03 L/h and 24.29 L/h and 15.92 L/h
Cavg [2]: 583.47 ng/mL and 498.51 ng/mL and 310.92 ng/mL and 462.09 ng/mL and 343.13 ng/mL and 523.54 ng/mL
Cmax [2]: 1160.00 ng/mL and 865.00 ng/mL and 1050.00 ng/mL and 677.00 ng/mL and 1070.00 ng/mL
Cmin [2]: 122.00 ng/mL (2×) and 164.00 ng/mL and 117.00 ng/mL and 155.00 ng/mL and 195.00 ng/mL
Fluct [2]: 201.90% and 199.80% and 240.58% and 200.83% and 152.13% and 167.13%
Tlast [2]: 48.00 h and 36.00 h (2×) and 72.00 h and 24.00 h (2×)
t½ [2]: 12.52 h and 6.01 h and 30.30 h and 6.26 h and 10.19 h and 5.46 h
AUC0-last [3]: 6439 ng·h/mL and 1632 ng·h/mL and 6744 ng·h/mL and 8831 ng·h/mL and 12137 ng·h/mL and 12571 ng·h/mL
AUC0-tau [3]: 8831 ng·h/mL and 12137 ng·h/mL and 12571 ng·h/mL and 6439 ng·h/mL and 1632 ng·h/mL and 6744 ng·h/mL
Cavg [3]: 268.28 ng/mL and 67.99 ng/mL and 290.99 ng/mL and 367.97 ng/mL and 505.70 ng/mL and 523.80 ng/mL
Cmax [3]: 980.00 ng/mL and 101.00 ng/mL and 1410.00 ng/mL and 1700.00 ng/mL and 1880.00 ng/mL and 2010.00 ng/mL
Fluct [3]: 365.28% and 148.55% and 501.79% and 461.99% and 371.76% and 383.73%
t½ [3]: 7.07 h and 5.60 h and 4.61 h and 9.17 h and 17.12 h and 8.29 h
